How the values were obtained:
Experiment in all cases: Test C postemergence
Assay type in all cases: in vivo
[1] = test system: giant foxtail (Setaria faberii); settings: Setaria faberi, post-emergence, 336 h, Postemergence, scale 0 to 100, read-out: Plant response rating, Foxtail, Giant
[2] = test system: wild oat (Avena fatua); settings: Avena fatua, post-emergence, Postemergence, scale 0 to 100, read-out: Plant response rating, Oat, Wild
[3] = test system: johnsongrass (Sorghum halepense); settings: Sorghum halepense, post-emergence, 336 h, Postemergence, scale 0 to 100, read-out: Plant response rating, Johnsongrass
[4] = test system: yellow nutsedge (Cyperus esculentus); settings: Cyperus, post-emergence, 336 h, Postemergence, scale 0 to 100, read-out: Plant response rating, Nutsedge, Yellow
[5] = test system: chickweed (common chickweed, Stellaria media); settings: Stellaria media, post-emergence, Postemergence, scale 0 to 100, read-out: Plant response rating, Chickweed
[6] = test system: waterhemp (common waterhemp, Amaranthus rudis); settings: Amaranthus tuberculatus, post-emergence, Postemergence, scale 0 to 100, read-out: Plant response rating, Waterhemp
[7] = test system: ragweed (common ragweed, Ambrosia elatior); settings: Ambrosia artemisiifolia, post-emergence, 336 h, Postemergence, scale 0 to 100, read-out: Plant response rating, Ragweed
[8] = test system: corn (Zea mays); settings: Zea mays, post-emergence, 336 h, Postemergence, scale 0 to 100
[9] = test system: soybean (Glycine max); settings: Glycine max, post-emergence, Postemergence, scale 0 to 100, read-out: Plant response rating, Soybean
[10] = test system: barnyardgrass (Echinochloa crus-galli); settings: Echinochloa crus-galli, post-emergence, Postemergence, scale 0 to 100, read-out: Plant response rating, Barnyardgrass
[11] = test system: Italian ryegrass (Lolium multiflorum); settings: Lolium multiflorum, post-emergence, 336 h, Postemergence, scale 0 to 100, read-out: Plant response rating, Ryegrass, Italian
[12] = test system: lambsquarters (Chenopodium album); settings: Chenopodium album, post-emergence, 336 h, Postemergence, scale 0 to 100, read-out: Plant response rating, Lambsquarters
[13] = test system: oilseed rape (Brassica napus); settings: Brassica napus, post-emergence, Postemergence, scale 0 to 100, read-out: Plant response rating, Oilseed Rape
[14] = test system: pigweed (Amaranthus retroflexus); settings: Amaranthus retroflexus, post-emergence, 336 h, Postemergence, scale 0 to 100, read-out: Plant response rating, Pigweed
[15] = test system: blackgrass (Alopecurus myosuroides); settings: Alopecurus myosuroides, post-emergence, 336 h, Postemergence, scale 0 to 100, read-out: Plant response rating, Blackgrass

Fc1cccc(Oc2ncc(Cl)cn2)c1Oc1ccc(Cl)nc1 [Compound 20]
pest or weed control at 31 g/ha ([1]; 31 g ai/ha): 15% | pest or weed control at 62 g/ha ([1]; 62 g ai/ha): 20% | pest or weed control at 125 g/ha ([1]; 125 g ai/ha): 15% | pest or weed control at 250 g/ha ([1]; 250 g ai/ha): 15% | pest or weed control at 31 g/ha ([2]; 31 g ai/ha): 5% | pest or weed control at 62 g/ha ([2]; 62 g ai/ha): 10% | pest or weed control at 125 g/ha ([2]; 125 g ai/ha): 10% | pest or weed control at 250 g/ha ([2]; 250 g ai/ha): 10% | pest or weed control at 31 g/ha ([3]; 31 g ai/ha): 5% | pest or weed control at 62 g/ha ([3]; 62 g ai/ha): 5% | pest or weed control at 125 g/ha ([3]; 125 g ai/ha): 5% | pest or weed control at 250 g/ha ([3]; 250 g ai/ha): 5% | pest or weed control at 31 g/ha ([4]; 31 g ai/ha): 0% | pest or weed control at 62 g/ha ([4]; 62 g ai/ha): 5% | pest or weed control at 125 g/ha ([4]; 125 g ai/ha): 10% | pest or weed control at 250 g/ha ([4]; 250 g ai/ha): 10% | pest or weed control at 31 g/ha ([5]; 31 g ai/ha): 35% | pest or weed control at 62 g/ha ([5]; 62 g ai/ha): 40% | pest or weed control at 125 g/ha ([5]; 125 g ai/ha): 45% | pest or weed control at 250 g/ha ([5]; 250 g ai/ha): 80% | pest or weed control at 31 g/ha ([6]; 31 g ai/ha): 85% | pest or weed control at 62 g/ha ([6]; 62 g ai/ha): 90% | pest or weed control at 125 g/ha ([6]; 125 g ai/ha): 90% | pest or weed control at 250 g/ha ([6]; 250 g ai/ha): 95% | pest or weed control at 31 g/ha ([7]; 31 g ai/ha): 20% | pest or weed control at 62 g/ha ([7]; 62 g ai/ha): 20% | pest or weed control at 125 g/ha ([7]; 125 g ai/ha): 45% | pest or weed control at 250 g/ha ([7]; 250 g ai/ha): 60% | Corn plant response rating (crop injury, 0 = no effect, 100 = complete kill) at 31 g/ha ([8]; 31 g ai/ha): 5% | Corn plant response rating (crop injury, 0 = no effect, 100 = complete kill) at 62 g/ha ([8]; 62 g ai/ha): 15% | Corn plant response rating (crop injury, 0 = no effect, 100 = complete kill) at 125 g/ha ([8]; 125 g ai/ha): 20% | Corn plant response rating (crop injury, 0 = no effect, 100 = complete kill) at 250 g/ha ([8]; 250 g ai/ha): 15% | plant injury at 31 g/ha ([9]; 31 g ai/ha): 25% | plant injury at 62 g/ha ([9]; 62 g ai/ha): 70% | plant injury at 125 g/ha ([9]; 125 g ai/ha): 65% | plant injury at 250 g/ha ([9]; 250 g ai/ha): 65% | pest or weed control at 31 g/ha ([10]; 31 g ai/ha): 5% | pest or weed control at 62 g/ha ([10]; 62 g ai/ha): 5% | pest or weed control at 125 g/ha ([10]; 125 g ai/ha): 10% | pest or weed control at 250 g/ha ([10]; 250 g ai/ha): 10% | pest or weed control at 31 g/ha ([11]; 31 g ai/ha): 5% | pest or weed control at 62 g/ha ([11]; 62 g ai/ha): 5% | pest or weed control at 125 g/ha ([11]; 125 g ai/ha): 10% | pest or weed control at 250 g/ha ([11]; 250 g ai/ha): 15% | pest or weed control at 31 g/ha ([12]; 31 g ai/ha): 85% | pest or weed control at 62 g/ha ([12]; 62 g ai/ha): 75% | pest or weed control at 125 g/ha ([12]; 125 g ai/ha): 75% | pest or weed control at 250 g/ha ([12]; 250 g ai/ha): 80% | plant injury at 31 g/ha ([13]; 31 g ai/ha): 15% | plant injury at 62 g/ha ([13]; 62 g ai/ha): 70% | plant injury at 125 g/ha ([13]; 125 g ai/ha): 80% | plant injury at 250 g/ha ([13]; 250 g ai/ha): 70% | pest or weed control at 31 g/ha ([14]; 31 g ai/ha): 75% | pest or weed control at 62 g/ha ([14]; 62 g ai/ha): 80% | pest or weed control at 125 g/ha ([14]; 125 g ai/ha): 90% | pest or weed control at 250 g/ha ([14]; 250 g ai/ha): 98% | pest or weed control at 31 g/ha ([15]; 31 g ai/ha): 5% | pest or weed control at 62 g/ha ([15]; 62 g ai/ha): 10% | pest or weed control at 125 g/ha ([15]; 125 g ai/ha): 5% | pest or weed control at 250 g/ha ([15]; 250 g ai/ha): 15%
